Values of other authors, collected in patent US11666623B2, “Tetramaleimide linkers and use thereof” (NewBio Therapeutics, Inc., priority 2017, dated 2023).

Test system: human carcinoma lines
Settings: cited from earlier work

SMILES: COc1cccc2c1C(=O)c1c(O)c3c(c(O)c1C2=O)C[C@@](O)(C(=O)CO)C[C@@H]3O[C@H]1C[C@H](N)[C@H](O)[C@H](C)O1 [doxorubicin, Doxorubicin]
- IC50: 100 to 200 nM
